Measured values: the supplement of paper PMC10307832

Experiments:
Experiment in all cases: relative viability (nuclei count vs DMSO), 5 days (fraction); higher = more cells survive
VE-821 + Pictilisib = compound: CS(=O)(=O)c1ccc(-c2cnc(N)c(C(=O)Nc3ccccc3)n2)cc1 [VE-821] + CS(=O)(=O)N1CCN(Cc2cc3nc(-c4cccc5[nH]ncc45)nc(N4CCOCC4)c3s2)CC1 [Pictilisib] (partner 1 µM)
In short: (§1)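 Lung cancer cell lines were seeded in 1536-well plates and dosed by pin tool the next day, with either a single drug or a fixed anchor-drug dose combined with five library-drug doses (not always all listed) spaced in √10 steps. Five days later, one step fixed the cells and stained their nuclei (final 0.05% Triton X-100, 1% formaldehyde, 1 ug/ml Hoechst), and nuclei were counted on 4× images. Relative viability is the nuclei count in treated wells divided by the count in vehicle wells, and each value is the median of duplicate plates.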

Vismodegib + Lapatinib = compound: CS(=O)(=O)c1ccc(C(=O)Nc2ccc(Cl)c(-c3ccccn3)c2)c(Cl)c1 [Vismodegib] + CS(=O)(=O)CCNCc1ccc(-c2ccc3ncnc(Nc4ccc(OCc5cccc(F)c5)c(Cl)c4)c3c2)o1 [Lapatinib] (partner 2 µM)
In short: as §1

Ruxolitinib + Navitoclax = compound: N#CC[C@H](C1CCCC1)n1cc(-c2ncnc3[nH]ccc23)cn1 [Ruxolitinib] + CC1(C)CCC(c2ccc(Cl)cc2)=C(CN2CCN(c3ccc(C(=O)NS(=O)(=O)c4ccc(N[C@H](CCN5CCOCC5)CSc5ccccc5)c(S(=O)(=O)C(F)(F)F)c4)cc3)CC2)C1 [Navitoclax] (partner 0.5 µM)
In short: as §1

Ruxolitinib + Linsitinib = compound: N#CC[C@H](C1CCCC1)n1cc(-c2ncnc3[nH]ccc23)cn1 [Ruxolitinib] + C[C@]1(O)C[C@@H](c2nc(-c3ccc4ccc(-c5ccccc5)nc4c3)c3c(N)nccn32)C1 [Linsitinib] (partner 1 µM)
In short: as §1

NCI-H520
relative viability (VE-821 + Pictilisib; first compound 0.08 µM): 0.321 | relative viability (VE-821 + Pictilisib; first compound 0.253 µM): 0.357 | relative viability (VE-821 + Pictilisib; first compound 2.53 µM): 0.325 | relative viability (VE-821 + Pictilisib; first compound 8 µM): 0.276 | relative viability (Vismodegib + Lapatinib; first compound 0.08 µM): 0.856 | relative viability (Vismodegib + Lapatinib; first compound 0.253 µM): 0.921 | relative viability (Vismodegib + Lapatinib; first compound 0.8 µM): 0.977 | relative viability (Vismodegib + Lapatinib; first compound 2.53 µM): 0.844 | relative viability (Vismodegib + Lapatinib; first compound 8 µM): 1.01 | relative viability (Ruxolitinib + Navitoclax; first compound 0.253 µM): 1.01 | relative viability (Ruxolitinib + Navitoclax; first compound 0.8 µM): 1.38 | relative viability (Ruxolitinib + Navitoclax; first compound 2.53 µM): 1.22 | relative viability (Ruxolitinib + Navitoclax; first compound 8 µM): 0.782 | relative viability (Ruxolitinib + Linsitinib; first compound 0.253 µM): 1.08 | relative viability (Ruxolitinib + Linsitinib; first compound 0.8 µM): 1.16 | relative viability (Ruxolitinib + Linsitinib; first compound 2.53 µM): 0.847 | relative viability (Ruxolitinib + Linsitinib; first compound 8 µM): 0.679

NCI-H1355
relative viability (VE-821 + Pictilisib; first compound 0.08 µM): 0.431 | relative viability (VE-821 + Pictilisib; first compound 0.253 µM): 0.458 | relative viability (VE-821 + Pictilisib; first compound 0.8 µM): 0.411 | relative viability (VE-821 + Pictilisib; first compound 2.53 µM): 0.476 | relative viability (VE-821 + Pictilisib; first compound 8 µM): 0.32 | relative viability (Vismodegib + Lapatinib; first compound 0.08 µM): 0.93 | relative viability (Vismodegib + Lapatinib; first compound 0.253 µM): 0.923 | relative viability (Vismodegib + Lapatinib; first compound 0.8 µM): 0.844 | relative viability (Vismodegib + Lapatinib; first compound 2.53 µM): 0.951 | relative viability (Vismodegib + Lapatinib; first compound 8 µM): 0.957 | relative viability (Ruxolitinib + Navitoclax; first compound 0.08 µM): 0.924 | relative viability (Ruxolitinib + Navitoclax; first compound 0.253 µM): 0.925 | relative viability (Ruxolitinib + Navitoclax; first compound 0.8 µM): 0.992 | relative viability (Ruxolitinib + Navitoclax; first compound 2.53 µM): 0.807 | relative viability (Ruxolitinib + Navitoclax; first compound 8 µM): 0.701 | relative viability (Ruxolitinib + Linsitinib; first compound 0.08 µM): 0.794 | relative viability (Ruxolitinib + Linsitinib; first compound 0.253 µM): 0.841 | relative viability (Ruxolitinib + Linsitinib; first compound 0.8 µM): 0.843 | relative viability (Ruxolitinib + Linsitinib; first compound 2.53 µM): 0.753 | relative viability (Ruxolitinib + Linsitinib; first compound 8 µM): 0.716

NCI-H1563
relative viability (VE-821 + Pictilisib; first compound 0.08 µM): 0.581 | relative viability (VE-821 + Pictilisib; first compound 0.253 µM): 0.613 | relative viability (VE-821 + Pictilisib; first compound 0.8 µM): 0.648 | relative viability (VE-821 + Pictilisib; first compound 2.53 µM): 0.663 | relative viability (VE-821 + Pictilisib; first compound 8 µM): 0.731 | relative viability (Vismodegib + Lapatinib; first compound 0.08 µM): 0.849 | relative viability (Vismodegib + Lapatinib; first compound 0.253 µM): 0.878 | relative viability (Vismodegib + Lapatinib; first compound 0.8 µM): 0.901 | relative viability (Vismodegib + Lapatinib; first compound 2.53 µM): 0.892 | relative viability (Vismodegib + Lapatinib; first compound 8 µM): 0.966 | relative viability (Ruxolitinib + Linsitinib; first compound 0.08 µM): 1.18 | relative viability (Ruxolitinib + Linsitinib; first compound 0.253 µM): 1.21 | relative viability (Ruxolitinib + Linsitinib; first compound 0.8 µM): 1.25 | relative viability (Ruxolitinib + Linsitinib; first compound 2.53 µM): 1.16 | relative viability (Ruxolitinib + Linsitinib; first compound 8 µM): 1.09

NCI-H1651
relative viability (VE-821 + Pictilisib; first compound 0.08 µM): 0.648 | relative viability (VE-821 + Pictilisib; first compound 0.253 µM): 0.584 | relative viability (VE-821 + Pictilisib; first compound 0.8 µM): 0.602 | relative viability (VE-821 + Pictilisib; first compound 2.53 µM): 0.557 | relative viability (VE-821 + Pictilisib; first compound 8 µM): 0.585 | relative viability (Vismodegib + Lapatinib; first compound 0.08 µM): 0.869 | relative viability (Vismodegib + Lapatinib; first compound 0.253 µM): 0.867 | relative viability (Vismodegib + Lapatinib; first compound 0.8 µM): 0.852 | relative viability (Vismodegib + Lapatinib; first compound 2.53 µM): 0.83 | relative viability (Vismodegib + Lapatinib; first compound 8 µM): 0.89 | relative viability (Ruxolitinib + Navitoclax; first compound 0.08 µM): 0.978 | relative viability (Ruxolitinib + Navitoclax; first compound 0.253 µM): 1.08 | relative viability (Ruxolitinib + Navitoclax; first compound 0.8 µM): 1.11 | relative viability (Ruxolitinib + Navitoclax; first compound 2.53 µM): 1.36 | relative viability (Ruxolitinib + Navitoclax; first compound 8 µM): 0.996 | relative viability (Ruxolitinib + Linsitinib; first compound 0.08 µM): 0.949 | relative viability (Ruxolitinib + Linsitinib; first compound 0.253 µM): 0.864 | relative viability (Ruxolitinib + Linsitinib; first compound 0.8 µM): 1 | relative viability (Ruxolitinib + Linsitinib; first compound 2.53 µM): 0.929 | relative viability (Ruxolitinib + Linsitinib; first compound 8 µM): 0.964

HCC-44
relative viability (VE-821 + Pictilisib; first compound 0.08 µM): 1.86 | relative viability (VE-821 + Pictilisib; first compound 0.253 µM): 0.468 | relative viability (VE-821 + Pictilisib; first compound 0.8 µM): 0.701 | relative viability (VE-821 + Pictilisib; first compound 2.53 µM): 0.708 | relative viability (VE-821 + Pictilisib; first compound 8 µM): 0.79 | relative viability (Vismodegib + Lapatinib; first compound 0.08 µM): 0.998 | relative viability (Vismodegib + Lapatinib; first compound 0.253 µM): 1.02 | relative viability (Vismodegib + Lapatinib; first compound 0.8 µM): 0.965 | relative viability (Vismodegib + Lapatinib; first compound 2.53 µM): 1.04 | relative viability (Vismodegib + Lapatinib; first compound 8 µM): 0.991 | relative viability (Ruxolitinib + Navitoclax; first compound 0.08 µM): 0.991 | relative viability (Ruxolitinib + Navitoclax; first compound 0.253 µM): 1.14 | relative viability (Ruxolitinib + Navitoclax; first compound 0.8 µM): 0.966 | relative viability (Ruxolitinib + Navitoclax; first compound 2.53 µM): 0.664 | relative viability (Ruxolitinib + Navitoclax; first compound 8 µM): 0.394 | relative viability (Ruxolitinib + Linsitinib; first compound 0.08 µM): 0.664 | relative viability (Ruxolitinib + Linsitinib; first compound 0.253 µM): 0.739 | relative viability (Ruxolitinib + Linsitinib; first compound 0.8 µM): 0.66 | relative viability (Ruxolitinib + Linsitinib; first compound 2.53 µM): 0.51 | relative viability (Ruxolitinib + Linsitinib; first compound 8 µM): 0.395

NCI-H1437
relative viability (VE-821 + Pictilisib; first compound 0.08 µM): 0.448 | relative viability (VE-821 + Pictilisib; first compound 0.253 µM): 0.352 | relative viability (VE-821 + Pictilisib; first compound 0.8 µM): 0.458 | relative viability (VE-821 + Pictilisib; first compound 2.53 µM): 0.396 | relative viability (VE-821 + Pictilisib; first compound 8 µM): 0.3 | relative viability (Vismodegib + Lapatinib; first compound 0.08 µM): 0.741 | relative viability (Vismodegib + Lapatinib; first compound 0.253 µM): 0.791 | relative viability (Vismodegib + Lapatinib; first compound 0.8 µM): 0.783 | relative viability (Vismodegib + Lapatinib; first compound 2.53 µM): 0.816 | relative viability (Vismodegib + Lapatinib; first compound 8 µM): 0.762 | relative viability (Ruxolitinib + Navitoclax; first compound 0.08 µM): 1.12 | relative viability (Ruxolitinib + Navitoclax; first compound 0.253 µM): 1.14 | relative viability (Ruxolitinib + Navitoclax; first compound 0.8 µM): 1.14 | relative viability (Ruxolitinib + Navitoclax; first compound 2.53 µM): 1.05 | relative viability (Ruxolitinib + Navitoclax; first compound 8 µM): 0.884 | relative viability (Ruxolitinib + Linsitinib; first compound 0.08 µM): 0.983 | relative viability (Ruxolitinib + Linsitinib; first compound 0.253 µM): 0.994 | relative viability (Ruxolitinib + Linsitinib; first compound 0.8 µM): 1.02 | relative viability (Ruxolitinib + Linsitinib; first compound 2.53 µM): 0.966 | relative viability (Ruxolitinib + Linsitinib; first compound 8 µM): 0.653

201T
relative viability (VE-821 + Pictilisib; first compound 0.08 µM): 0.723 | relative viability (VE-821 + Pictilisib; first compound 0.253 µM): 0.626 | relative viability (VE-821 + Pictilisib; first compound 0.8 µM): 0.65 | relative viability (VE-821 + Pictilisib; first compound 2.53 µM): 0.698 | relative viability (VE-821 + Pictilisib; first compound 8 µM): 0.559 | relative viability (Vismodegib + Lapatinib; first compound 0.08 µM): 1.05 | relative viability (Vismodegib + Lapatinib; first compound 0.253 µM): 0.998 | relative viability (Vismodegib + Lapatinib; first compound 0.8 µM): 0.946 | relative viability (Vismodegib + Lapatinib; first compound 2.53 µM): 1.04 | relative viability (Vismodegib + Lapatinib; first compound 8 µM): 1.02 | relative viability (Ruxolitinib + Navitoclax; first compound 0.08 µM): 1.25 | relative viability (Ruxolitinib + Navitoclax; first compound 0.253 µM): 1.31 | relative viability (Ruxolitinib + Navitoclax; first compound 0.8 µM): 1.44 | relative viability (Ruxolitinib + Navitoclax; first compound 2.53 µM): 1.48 | relative viability (Ruxolitinib + Navitoclax; first compound 8 µM): 1.36 | relative viability (Ruxolitinib + Linsitinib; first compound 0.08 µM): 1.1 | relative viability (Ruxolitinib + Linsitinib; first compound 0.253 µM): 1.15 | relative viability (Ruxolitinib + Linsitinib; first compound 0.8 µM): 1.19 | relative viability (Ruxolitinib + Linsitinib; first compound 2.53 µM): 1.21 | relative viability (Ruxolitinib + Linsitinib; first compound 8 µM): 1.22

LCLC-103H
relative viability (VE-821 + Pictilisib; first compound 0.08 µM): 0.572 | relative viability (VE-821 + Pictilisib; first compound 0.253 µM): 0.51 | relative viability (VE-821 + Pictilisib; first compound 0.8 µM): 0.663 | relative viability (VE-821 + Pictilisib; first compound 2.53 µM): 0.75 | relative viability (VE-821 + Pictilisib; first compound 8 µM): 0.494 | relative viability (Ruxolitinib + Linsitinib; first compound 0.08 µM): 1.2 | relative viability (Ruxolitinib + Linsitinib; first compound 0.253 µM): 1.24 | relative viability (Ruxolitinib + Linsitinib; first compound 0.8 µM): 1.25 | relative viability (Ruxolitinib + Linsitinib; first compound 2.53 µM): 1.04 | relative viability (Ruxolitinib + Linsitinib; first compound 8 µM): 1.03

NCI-H1915
relative viability (VE-821 + Pictilisib; first compound 0.08 µM): 1.06 | relative viability (VE-821 + Pictilisib; first compound 0.253 µM): 0.785 | relative viability (VE-821 + Pictilisib; first compound 0.8 µM): 0.982 | relative viability (VE-821 + Pictilisib; first compound 2.53 µM): 1.07 | relative viability (VE-821 + Pictilisib; first compound 8 µM): 0.652 | relative viability (Vismodegib + Lapatinib; first compound 0.08 µM): 0.936 | relative viability (Vismodegib + Lapatinib; first compound 0.253 µM): 0.975 | relative viability (Vismodegib + Lapatinib; first compound 0.8 µM): 0.995 | relative viability (Vismodegib + Lapatinib; first compound 2.53 µM): 0.901 | relative viability (Vismodegib + Lapatinib; first compound 8 µM): 0.978 | relative viability (Ruxolitinib + Navitoclax; first compound 0.08 µM): 0.79 | relative viability (Ruxolitinib + Navitoclax; first compound 0.253 µM): 0.838 | relative viability (Ruxolitinib + Navitoclax; first compound 0.8 µM): 0.791 | relative viability (Ruxolitinib + Navitoclax; first compound 2.53 µM): 0.731 | relative viability (Ruxolitinib + Navitoclax; first compound 8 µM): 0.691 | relative viability (Ruxolitinib + Linsitinib; first compound 0.08 µM): 1.12 | relative viability (Ruxolitinib + Linsitinib; first compound 0.253 µM): 1.05 | relative viability (Ruxolitinib + Linsitinib; first compound 0.8 µM): 1.05 | relative viability (Ruxolitinib + Linsitinib; first compound 2.53 µM): 1.04 | relative viability (Ruxolitinib + Linsitinib; first compound 8 µM): 1.03
